Read-outs that look alike come from different tables or passages of the source.
Columns and labels:
[1] = molecular target: T1, α1B Human Adrenergic Receptor (Homo sapiens, UniProt P35368); assay: Radioligand binding, [3H]prazosin, cloned human α1B adrenergic receptor; conditions: cloned human receptor, LM(tk-) cell membranes, mean
T1 construct: The entire coding region of α1B (1563 bp); expressed in transfected cells
T1 sequence (P35368 1-520): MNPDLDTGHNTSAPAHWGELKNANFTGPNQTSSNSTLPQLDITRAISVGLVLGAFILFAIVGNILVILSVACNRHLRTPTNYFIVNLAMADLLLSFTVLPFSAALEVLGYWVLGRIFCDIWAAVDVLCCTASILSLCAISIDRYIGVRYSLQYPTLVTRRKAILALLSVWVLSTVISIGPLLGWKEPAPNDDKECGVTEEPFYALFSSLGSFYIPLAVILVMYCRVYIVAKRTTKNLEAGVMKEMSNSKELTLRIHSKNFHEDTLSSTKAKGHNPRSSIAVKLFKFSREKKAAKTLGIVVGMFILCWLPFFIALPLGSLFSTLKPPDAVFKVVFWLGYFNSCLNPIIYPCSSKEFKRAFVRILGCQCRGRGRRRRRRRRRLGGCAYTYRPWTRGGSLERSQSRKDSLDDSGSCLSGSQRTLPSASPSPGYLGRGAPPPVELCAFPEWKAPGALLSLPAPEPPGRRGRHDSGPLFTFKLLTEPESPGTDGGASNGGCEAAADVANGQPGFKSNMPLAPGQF
How it was run: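 Membranes from stably transfected LM(tk−) cells, resuspended in 50 mM Tris-HCl, 1 mM MgCl2, 0.1% ascorbic acid, pH 7.5, were incubated with 0.5 nM [3H]prazosin for 20 min at 37° C. Nonspecific binding defined with 10 μM phentolamine; bound ligand separated by GF/B filtration.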

[2] = read-out: PKi alpha-1 1b (converted)

Compound	melting point	Ki [1, 2] [µM]	Ki ([1]; PKi alpha-1 1b) [µM]
COC(=O)C1=C(C)NC(CCCCN)=C(C(=O)NCCCN2CCC(c3ccccc3)(c3ccccc3)CC2)C1c1ccc([N+](=O)[O-])cc1 (stereo not drawn) [Example 170, 2-(4-Aminobutyl)-1,4-dihydro-5-methoxycarbonyl-6-methyl-4-(4-nitrophenyl)-3-{N-[3-(4,4-diphenylpiperidin-1-yl)propyl]}carboxamidopyridine]	89 to 93 °C	0.105	–
CCC1=C(C(N)=O)C(c2ccc([N+](=O)[O-])cc2)C(C(=O)NCCCN2CCC(c3ccccc3)(c3ccccc3)CC2)=C(CCCCN)N1 (stereo not drawn) [Example 171, 2-(4-Aminobutyl)-5-carboxamido-6-ethyl-1,4-dihydro-4-(4-nitrophenyl)-3-{N-[3-(4,4-diphenylpiperidin-1-yl)propyl]}carboxamidopyridine]	85 to 89 °C	–	0.617
CCC1=C(C(=O)NC)C(c2ccc([N+](=O)[O-])cc2)C(C(=O)NCCCN2CCC(c3ccccc3)(c3ccccc3)CC2)=C(CCCCN)N1 (stereo not drawn) [Example 172, 2-(4-Aminobutyl)-6-ethyl-1,4-dihydro-5-(N-methyl)carboxamido-4-(4-nitrophenyl)-3-{N-[3-(4,4-diphenylpiperidin-1-yl)propyl]}carboxamidopyridine]	105 to 109 °C	–	0.617
CCC1=C(C(=O)NC)C(c2ccc([N+](=O)[O-])cc2)C(C(=O)NCCCN2CCC(c3ccccc3)(c3ccccc3)CC2)=C(CCCCOC)N1 (stereo not drawn) [Example 173, 6-Ethyl-1,4-dihydro-2-(4-methoxybutyl)-5-(N-methyl)carboxamido-4-(4-nitrophenyl)-3-{N-[3-(4,4-diphenylpiperidin-1-yl)propyl]}carboxamidopyridine]	98 to 102 °C	–	0.427
CCC1=C(C(=O)NC)C(c2ccc([N+](=O)[O-])cc2)C(C(=O)NCCCN2CCC(C(=O)OC)(c3ccccc3)CC2)=C(CCCCOC)N1 (stereo not drawn) [Example 174, 6-Ethyl-1,4-dihydro-2-(4-methoxybutyl)-3-{N-[3-(4-methoxycarbonyl-4-phenylpiperidin-1-yl)propyl]}carboxamido-5-(N-methyl)carboxamido-4-(4-nitrophenyl)pyridine]	71 to 74 °C	1.91	–
CC(=O)C1=C(C)NC(CCCCN)=C(C(=O)NCCCN2CCC(c3ccccc3)(c3ccccc3)CC2)C1c1ccc([N+](=O)[O-])cc1 (stereo not drawn) [Example 176, 5-Acetyl-2-(4-aminobutyl)-1,4-dihydro-6-methyl-4-(4-nitrophenyl)-3-{N-[3-(4,4-diphenylpiperidin-1-yl)propyl]}carboxamidopyridine]	76 to 79 °C	–	0.158
COC(=O)C1(c2ccccc2)CCN(CCCNC(=O)C2=C(CCCCN)NC(C)=C(C(N)=O)C2c2ccc([N+](=O)[O-])cc2)CC1 (stereo not drawn) [Example 177, 2-(4-Aminobutyl)-5-carboxamido-1,4-dihydro-3-{N-[3-(4-methoxycarbonyl-4-phenylpiperidin-1-yl)propyl]}carboxamido-6-methyl-4-(4-nitrophenyl)pyridine]	81 to 84 °C	0.759	–
COC(=O)C1(c2ccccc2)CCN(CCCNC(=O)C2=C(CCCCN)NC(C)=C(C(C)=O)C2c2ccc([N+](=O)[O-])cc2)CC1 (stereo not drawn) [Example 178, 5-Acetyl-2-(4-aminobutyl)-1,4-dihydro-3-{N-[3-(4-methoxycarbonyl-4-phenylpiperidin-1-yl)propyl]}carboxamido-6-methyl-4-(4-nitrophenyl) pyridine]	62 to 65 °C	0.417	–
CCNC(=O)C1=C(CC)NC(CC)=C(C(=O)NCCCN2CCC(C(=O)OC)(c3ccccc3)CC2)C1c1ccc([N+](=O)[O-])cc1 (stereo not drawn) [Example 180, 2,6-Diethyl-1,4-dihydro-5-(N-ethyl)carboxamido-3-{N-[3-(4-methoxycarbonyl-4-phenylpiperidin-1-yl)propyl]}carboxamido-4-(4-nitrophenyl)pyridine]	217 °C (dec.)	0.851	–
CCNC(=O)C1=C(CC)NC(CC)=C(C(=O)NCCCN2CCC(C(=O)OCC)(c3ccccc3)CC2)C1c1ccc([N+](=O)[O-])cc1 (stereo not drawn) [Example 182, 2,6-Diethyl-1,4-dihydro-3-{N-[3-(4-ethoxycarbonyl-4-phenylpiperidin-1-yl)propyl]}carboxamido-5-(N-ethyl)carboxamido-4(4-nitrophenyl)pyridine]	103 to 104 °C	1.12	–
CCNC(=O)C1=C(CC)NC(COCCN)=C(C(=O)NCCCN2CCC(C(=O)OCC)(c3ccccc3)CC2)C1c1ccc([N+](=O)[O-])cc1 (stereo not drawn) [Example 192, 2-[(2-Aminoethoxy)methyl]-3-{N-[3-(4-ethoxycarbonyl-4-phenyl-piperidin-1-yl)propyl]}carboxamido-1,4-dihydro-6-ethyl-5-(N-ethyl)carboxamido-4-(4-nitrophenyl)pyridine]	112 to 114 °C	1.86	–
CCOC(=O)C1(c2ccccc2)CCN(CCCNC(=O)C2=C(COCCN)NC(CC)=C(C(N)=O)C2c2ccc([N+](=O)[O-])cc2)CC1 (stereo not drawn) [Example 193, 2-[(2-Aminoethoxy)methyl]-5-carboxamido-3-{N-[3-(4-ethoxycarbonyl-4-phenylpiperidin-1-yl)propyl]}carboxamido-1,4-dihydro-6-ethyl-4-(4-nitrophenyl)pyridine]	87 to 89 °C	1.74	–
CCOC(=O)C1(c2ccccc2)CCN(CCCNC(=O)C2=C(COCCN)NC(CC)=C(C(=O)NC)C2c2ccc([N+](=O)[O-])cc2)CC1 (stereo not drawn) [Example 194, 2-[(2-Aminoethoxy)methyl]-3-{N-[3-(4-ethoxycarbonyl-4-phenylpiperidin-1-yl)propyl]}carboxamido-1,4-dihydro-6-ethyl-5-(N-methyl) carboxamido-4-(4-nitrophenyl) pyridine]	51 to 53 °C	2.69	–
CCOC(=O)C1(c2ccccc2)CCN(CCCNC(=O)C2=C(COCCN)NC(CC)=C(C(=O)O)C2c2ccc([N+](=O)[O-])cc2)CC1 (stereo not drawn) [Example 196, 2-[(2-Aminoethoxy)methyl]-3-{N-[3-(4-ethoxycarbonyl-4-phenylpiperidin-1-yl)propyl]}carboxamido-1,4-dihydro-6-ethyl-4-(4-nitrophenyl)pyridine-5-carboxylic Acid]	103 to 105 °C	3.63	–
CCOC(=O)C1(c2ccccc2)CCN(CCCNC(=O)C2=C(COCCN)NC(CC)=C(C(=O)OC)C2c2ccc([N+](=O)[O-])cc2)CC1 (stereo not drawn) [Example 197, 2-[(2-Aminoethoxy)methyl]-3-{N-[3-(4-ethoxycarbonyl-4-phenylpiperidin-1-yl)propyl]}carboxamido-1,4-dihydro-6-ethyl-5-methoxycarbonyl-4-(4-nitrophenyl) pyridine]	45 to 47 °C	0.148	–
CCC1=C(C(N)=O)C(c2ccc([N+](=O)[O-])cc2)C(C(=O)NCCCN2CCC(C(=O)OC)(c3ccccc3)CC2)=C(CC)N1 (stereo not drawn) [Example 200]	112 to 114 °C	2	–
CC1=C(C(N)=O)C(c2ccc([N+](=O)[O-])cc2)C(C(=O)NCCCN2CCC(C(=O)O)(c3ccccc3)CC2)=C(C)N1 (stereo not drawn) [Example 210, 5-Carboxamido-3-{N-[3-(4-carboxy-4-phenylpiperidin-1-yl)propyl]}carboxamido-1,4-dihydro-2,6-dimethyl-4-(4-nitrophenyl)pyridine]	208 to 210 °C	44.7	–
CCC1=C(C(=O)NC)C(c2ccc([N+](=O)[O-])cc2)C(C(=O)NCCCN2CCC(c3ccccc3)(c3ccccc3)CC2)=C(COCCN)N1 (stereo not drawn) [Example 225, 2-((2-Aminoethyl)oxy)methyl-6-ethyl-1,4-dihydro-5-N-methylcarboxamido-4-(4-nitro)phenyl-3-(3-(N-(4,4-diphenylpiperidin-1-yl)propyl))carboxamidopyridine]	115 °C (dec.)	0.501	–
CCC1=C(C(=O)NC)C(c2ccc([N+](=O)[O-])cc2)C(C(=O)NCCCN2CCC(C(=O)OC)(c3ccccc3)CC2)=C(COCCN)N1 (stereo not drawn) [Example 229, 2-((2-Aminoethyl)oxy)methyl-6-ethyl-1,4-dihydro-3-(N-(3-(4-methoxycarbonyl-4-phenylpiperidin-1-yl)propyl))carbo xamido-5-N-methylcarboxamido-4-(4-nitro)phenylpyridine]	95 °C (dec.)	1.38	–
CCNC(=O)C1=C(CC)NC(COCCN)=C(C(=O)NCCCN2CCC(C(=O)OC)(c3ccccc3)CC2)C1c1ccc([N+](=O)[O-])cc1 (stereo not drawn) [Example 233, 2-((2-Aminoethyl)oxy)methyl-6-ethyl-5-N-ethylcarboxamido-1,4-dihydro-3-(N-(3-(4-methoxycarbonyl-4-phenylpiperidin-1-yl)propyl))carboxamido-4-(4-nitro)phenylpyridine]	112 °C (dec.)	1.62	–
CCC1=C(C(=O)OC)C(c2ccc([N+](=O)[O-])cc2)C(C(=O)NCCCN2CCC(C(=O)OC)(c3ccccc3)CC2)=C(COCCN)N1 (stereo not drawn) [Example 235, 2-((2-Aminoethyl)oxy)methyl-6-ethyl-1,4-dihydro-5-methoxycarbonyl-3-(N-(3-(4-methoxycarbonyl-4-phenylpiperidin-1-yl)propyl))carboxamido-4-(4-nitro)phenylpyridine]	140 °C (dec.)	0.219	–

— patent US6608086B2, “Dihydropyridines and new uses thereof” (Synaptic Pharmaceutical Corporation, priority 1993, dated 2003)
